Source: paper PMC5897276, “External radiation exposure, excretion, and effective half-life in ^177Lu-PSMA-targeted therapies” (EJNMMI Research, 2018)
“And” between values parts separate entries of the source, which are not always exact repeats. Identical values can stand only once. Marks after values point to notes of the source that are not given here.

How the values were obtained:
[1] = Whole-body activity measurement with external gamma probe and analysis of excreted activity; assay type: in vivo, patients; conditions: for Excreted activity Aex between given time point and previous time point, min / Overall excreted activity as percentage of administered activity, max / Overall excreted activity as percentage of administered activity, min / Excreted activity Aex between given time point and previous time point, max / Excreted activity Aex between given time point and previous time point, mean / Overall excreted activity as percentage of administered activity, mean: 25 patients (Department 2)
Method: The analysis of the excretion of unbound ^177Lu-PSMA ligands and lutetium-177 was performed indirectly by measuring the remaining activity within the body of the patients at different time points with an external gamma probe. This has been proven to be a fast, simple, and robust method to estimate the activity within the body of the patient. The difference compared with the expected activity that can be calculated directly by the physical decay of the administered activity is assumed to be equivalent to the excreted activity.
The measurements were carried out in Department 2, using a cohort of 25 patients (see Table 1). The whole-body activity was measured at 0 h (before voiding, reference) and approximately at 2, 4, 12, 24, 48, and 72 h after the administration of ^177Lu-PSMA-617.
The remaining activity AWB in the patient at the given time point ti was determined by the following equation:1 AWBti=CAti⋅CPti/CFP, where cA(ti) and cP(ti) are the count rates (compensated for the background) at the given time point for the anterior and posterior views respectively. CFP is a patient-specific calibration factor based on a baseline measurement of each patient, performed immediately after administration of ^177Lu-PSMA-617 and before the first voiding of the bladder. This factor is calculated according to the following equation:2 CFP=CA0⋅Cp0/AP, where AP is the administered activity. This factor represents the efficiency of the detector for the spatially distributed activity and intrinsically considers the self-attenuation of the γ photons by the body of the patient.
The excreted activity Aex at the time point ti was calculated as the difference of the whole-body activity at the previous time point ti − 1 (corrected for decay) and the whole-body activity at the time point ti. The whole extracted activity can then be calculated as a summation:3 Aex=∑j=1iAWBti−1e^−ln2/T1/2∙ti−ti−1−AWBti,
A 3″ × 3″-NaI (Tl) detector (Type 905-4) with multichannel analyzer and software (digiBASE, MAESTRO, Ortec, Oak Ridge, USA) was used as a measurement system. It was calibrated using americium-241, cobalt-57, cesium-137, and iodine-131 test sources, and regular quality checks were carried out. The shielded detector (collimator of 3 cm lead) was positioned 1 m above the floor, and the field of view covered the whole body of the patient. The energy window was set to 208 keV ± 27%, corresponding to approximately 3 × full width at half maximum of the energy resolution of the NaI (Tl) detector. The background was measured for 300 s without the presence of a patient. Patients were measured in anterior and posterior standing positions while holding arms close to the body at a distance of 2 m from the collimator surface. For all measurements, the acquisition time corrected for dead-time effects was set to 90 s. […] No further corrections (e.g., for pile-up or non-linearity) were applied. Statistical uncertainties of the count rate were below 1% for all measurements, as recommended by Hindorf et al.. Bi-exponential functions were fitted to the data, and the effective half-lives were calculated. The bi-exponential fit model was chosen after comparing the quality of fit of mono- and bi-exponential models using the Akaike criterion as described by Kletting et al..

[2] = Whole-body dose rate measurement at a distance of 2 m and calculation of effective half-life; assay type: in vivo, patients; conditions: for Calculated effective half-life T1/2eff, max / Calculated effective half-life T1/2eff, mean / Calculated effective half-life T1/2eff, min: mono-exponential fit of dose rate
Method: The measurements and analyses were carried out with 50 patients from both departments as characterized in Table 1. All patients of Department 2 were released from the hospital 72 h p. i. for organizational reasons. Therefore, dose rate measurements were also available for ti = 72 h p. i.
In both departments, the dose rate monitor LB 123 D-H10 (Berthold Technologies, Bad Wildbad, Germany) was used, which is suitable for dose rate levels between 0.05 μSv/h and 10 mSv/h within an energy range from 30 keV to 1.3 MeV. The systems were officially calibrated, and regular quality checks were carried out. The patients were measured in the standing position from the anterior (DRA) and posterior (DRP) view at a distance of 2 m from the surface of the detector. The dose rate DR for different time points (see Table 1) was then calculated as the geometric mean of both measurements5 DRti=DRAti∙DRPti.
The data were fitted by a mono-exponential curve, and the effective half-life was calculated for the different time points: 24, 48, and 72 h (only from the data of Department 2). […] For all comparisons, the time point 48 h was chosen as the reference, because it is standard that the patients are released from the therapy ward after 48 h. Subsequently, Eq. 4 was used to determine the dose D to the public after the discharge of the patient for different time points of release (24, 48, and 72 h p. i.), substituting T1/2eff by T1/2ind (individual half-life of each patient), T1/2phys (physical half-life of ^177Lu), and T1/2max (maximum of the calculated effective half-life of the patient cohort) for different calculations. In addition, a correlation analysis (Spearman and Pearson) of the dose rate and administered activity was performed.

[3] = time point 24.2 ± 0.7 h (from 2 h/4 h and 24 h)
[4] = time point 67.7 ± 2.3 h (72 h; from 24, 48 and 72 h), 25 patients (Department 2)
[5] = time point 45.7 ± 2.1 h p. i. (48 h)
[6] = time point 67.7 ± 2.3 h p. i. (72 h), 25 patients (Department 2)

With `O=C([O-])CN1CCN(CC(=O)[O-])CCN(CC(=O)NCC2CCC(C(=O)N[C@@H](Cc3ccc4ccccc4c3)C(=O)NCCCC[C@H](NC(=O)N[C@@H](CCC(=O)O)C(=O)O)C(=O)O)CC2)CCN(CC(=O)[O-])CC1.[177Lu+3]` (some centres unmarked) [^177Lu-PSMA-617] the “Excreted activity Aex between given time point and previous time point, min” value ([1]; 12 h p. i.) was 1009 MBq, the “Overall excreted activity as percentage of administered activity, max” value (shortened to “Overall excreted activity as percentage … max”) ([1]; 12 h p. i.) was 82% and the “Overall excreted activity as percentage of administered activity, min” value ([1]; 12 h p. i.) was 48%. The “Excreted activity Aex between given time point and previous time point, max” value ([1]; 24 h p. i.) was 474 MBq, the “Excreted activity Aex between given time point and previous time point, mean” value ([1]; 24 h p. i.) was 395 MBq and the “Excreted activity Aex between given time point and previous time point, min” value ([1]; 24 h p. i.) was 318 MBq. The “Overall excreted activity as percentage … max” value ([1]; 24 h p. i.) was 87%, the “Overall excreted activity as percentage of administered activity, mean” value (from here on “Overall excreted activity as percentage … mean”) ([1]; 24 h p. i.) was 76% and the “Overall excreted activity as percentage of administered activity, min” value ([1]; 24 h p. i.) was 53%. The “Excreted activity Aex between given time point and previous time point, max” value ([1]; 48 h p. i.) was 265 MBq, the “Excreted activity Aex between given time point and previous time point, mean” value ([1]; 48 h p. i.) was 219 MBq and the “Excreted activity Aex between given time point and previous time point, min” value ([1]; 48 h p. i.) was 160 MBq. For the same compound, the “Overall excreted activity as percentage … max” value ([1]; 48 h p. i.) was 89%, the “Overall excreted activity as percentage … mean” value ([1]; 48 h p. i.) was 77% and the “Overall excreted activity as percentage of administered activity, min” value ([1]; 48 h p. i.) was 50%. For the same compound, the “Excreted activity Aex between given time point and previous time point, max” value ([1]; 72 h p. i.) was 82 MBq, the “Excreted activity Aex between given time point and previous time point, mean” value ([1]; 72 h p. i.) was 68 MBq and the “Excreted activity Aex between given time point and previous time point, min” value ([1]; 72 h p. i.) was 50 MBq. The “Overall excreted activity as percentage … max” value ([1]; 72 h p. i.) was 89%, the “Overall excreted activity as percentage … mean” value ([1]; 72 h p. i.) was 78% and the “Overall excreted activity as percentage of administered activity, min” value ([1]; 72 h p. i.) was 54%. The “Clearance of the unbound compound from the body” value ([1]; in words) was “rapidly cleared from the body”, the “Excreted activity over a period of 72 h (per therapy cycle and patient), average” value ([1]; of the administered 6.6 GBq, patient cohort 2) was “approximately 4.8 GBq” and the “Calculated effective half-life T1/2eff, max” value [2, 3] was 73.5 h. For the same compound, the “Calculated effective half-life T1/2eff, mean” value [2, 3] was 26.0 h, the “Calculated effective half-life T1/2eff, min” value [2, 3] was 11.0 h and the “Calculated effective half-life T1/2eff, min” value ([2]; time point 45.7 ± 2.1 h (48 h; from 24 h and 48 h)) was 21.7 h. For the same compound, the “Calculated effective half-life T1/2eff, max” value [2, 4] was 74.5^a h, the “Calculated effective half-life T1/2eff, mean” value [2, 4] was 38.4^a h and the “Calculated effective half-life T1/2eff, min” value [2, 4] was 25.7^a h. The “Dose rate (measured at a distance of 2 m), max” value (shortened to “Dose rate … max”) ([2]; time point 2 ± 0.3 h p. i.) was 5.0 μSv/h, the “Dose rate (measured at a distance of 2 m), mean” value (shortened to “Dose rate … mean”) ([2]; time point 2 ± 0.3 h p. i.) was 3.6 ± 0.7 μSv/h and 3.6 μSv/h and the “Dose rate (measured at a distance of 2 m), min” value (“Dose rate … min” below) ([2]; time point 2 ± 0.3 h p. i.) was 2.2 μSv/h. For the same compound, the “Dose rate … max” value ([2]; time point 3.9 ± 0.7 h p. i.) was 3.8 μSv/h, the “Dose rate … mean” value ([2]; time point 3.9 ± 0.7 h p. i.) was 2.8 μSv/h and the “Dose rate … min” value ([2]; time point 3.9 ± 0.7 h p. i.) was 1.3 μSv/h. The “Dose rate … mean” value ([2]; time point 24.2 ± 0.7 h p. i.) was 1.6 ± 0.6 μSv/h and 1.6 μSv/h, the “Dose rate … min” value ([2]; time point 24.2 ± 0.7 h p. i.) was 0.5 μSv/h and the “Dose rate … max” value [2, 5] was 2.3 μSv/h. The “Dose rate … mean” value [2, 5] was 1.1 ± 0.5 μSv/h and 1.1 μSv/h, the “Dose rate … min” value [2, 5] was 0.4 μSv/h and the “Dose rate … max” value [2, 6] was 2.1^a μSv/h. For the same compound, the “Dose rate … mean” value [2, 6] was 0.7 ± 0.4 μSv/h and 0.7^a μSv/h and the “Dose rate … min” value [2, 6] was 0.1^a μSv/h.
